Data: patent US9815788B2, “Anti-angiogenic compounds” (University College Dublin National University of Ireland, …, priority 2012, dated 2017)
Structures can show the parent of a compound that is named as a salt.

Assays:
[1] = test system: OE33R radio-resistant oesophageal adenocarcinoma cells; experiment: Quantification of glycolysis (ECAR, Seahorse), OE33R; type: cell-based, human; settings: 10 μM, 24 hours
Protocol: OE33P radio-sensitive and OE33R radio-resistant oesophageal adenocarcinoma cells were used to test the effects of compounds 11B HCl, 11B CC11 HCl, 11B CC16 HCl, 11B 471 and 11B 268 on glycolysis. Cells were maintained in RPMI media supplemented with 10% foetal calf serum, penicillin (100 U/ml) and streptomycin (100 μg/ml). A total of 11,000 or 13,000 cells, in 100 μl media, were seeded per well in 24 well plates and left to incubate for 24 hours, with an additional 150 μl media added after 5 hours. The media was replaced with solutions containing 10 μM of 11B HCl, […], 11B CC16 HCl, 11B 471, 11B 268 or fresh media as a control. Each drug had 6 replicates. After 24 hours of treatment, media was replaced with modified DMEM supplemented with 0.5 mM glucose. Rates of glycolysis were determined using Seahorse Biosciences metabolism technology. The media was disposed and the cells washed with PBS. The cells were fixed with 1% glutaraldehyde for 15 minutes and then stained with crystal violet for 30 minutes. The plates were blotted and dried overnight. The cells were resuspended with 1% TritonX-100 and shaken for 15 minutes. The absorbance was read on a spectrophotometer at 590 nm. Rates of glycolysis were then normalised to cell number.
OE33P radiosensitive oesophageal adenocarcinoma cells were used to test the effects of the compound 11B_ZHCl on glycolysis. Cells were maintained in RPMI media supplemented with 10% foetal calf serum, penicillin (100 U/ml) and streptomycin (100 μg/ml). A total of 11,000 cells, in 100 μl media, were seeded per well in 24 well plates and left to incubate for 24 hours, with an additional 150 μl media added after 5 hours. The media was replaced with solutions containing 10 μM of 11B_ZHCl or fresh media as a control. Each treatment had 6 replicates. After 24 hours of treatment, media was replaced with modified DMEM supplemented with 0.5 mM glucose. Rates of glycolysis were determined using Seahorse Biosciences metabolism technology. […] The absorbance was read on a spectrophotometer at 590 nm. […] No changes in ECAR were detected in OE33R treated cells.

[2] = test system: OE33P radiosensitive oesophageal adenocarcinoma cells; experiment: Quantification of oxidative phosphorylation (OCR, Seahorse), OE33P; type: cell-based, human; settings: 10 μM, 24 hours
Protocol: (§1) OE33P radiosensitive and OE33R radio-resistant oesophageal adenocarcinoma cells were used to test the effects of the compounds 11B HCl, 11B CC11 HCl, 11B CC16 HCl, 11B 471 and 11B 268 on oxidative phosphorylation. Cells were maintained in RPMI media supplemented with 10% foetal calf serum, penicillin (100 U/ml) and streptomycin (100 μg/ml). A total of 11,000-13,000 cells, in 100 μl media, were seeded per well in 24 well plates and left to incubate for 24 hours, with an additional 150 μl media added after 5 hours. The media was replaced with solutions containing 10 μM of 11B HCl, 11B CC11 HCl, 11B CC16 HCl, 11B 471, 11B 268 or fresh media as a control. Each drug had 6 replicates. After 24 hours of treatment, media was replaced with modified DMEM supplemented with 0.5 mM glucose. Rates of oxidative phosphorylation were determined using Seahorse Biosciences metabolism technology. The media was disposed and the cells washed with PBS. The cells were fixed with 1% glutaraldehyde for 15 minutes and then stained with crystal violet for 30 minutes. The plates were blotted and dried overnight. The cells were resuspended with 1% TritonX-100 and shaken for 15 minutes. The absorbance was read on a spectrophotometer at 595 nm. Rates of oxidative phosphorylation were then normalised to cell number.
(§2) OE33P radiosensitive and OE33R radioresistant oesophageal adenocarcinoma cells were used to test the effects of the compound 11B_Z_HCl on oxidative phosphorylation. Cells were maintained in RPMI media supplemented with 10%0/foetal calf serum, penicillin […]) and streptomycin (100 μg/ml). A total of 11,000 cells, in 100 μl media, were seeded per well in 24 well plates and left to incubate for 24 hours, with an additional 150 μl media added after 5 hours. The media was replaced with solutions containing 10 μM of 11B_Z_HCl or fresh media as a control. Each treatment had 6 replicates. After 24 hours of treatment, media was replaced with modified DMEM supplemented with 0.5 mM glucose. Rates of oxidative phosphorylation were determined using Seahorse Biosciences metabolism technology. Rates of oxidative phosphorylation were then normalised to cell number.

[3] = test system: RAD51L3, MMS19, SMUG1, PARP1 and MLH1 in OE33R cells; experiment: Gene expression of DNA repair proteins (qPCR), OE33R; type: cell-based, human; settings: 10 μM, 24 hours, reduction of RAD51L3, MMS19, PARP1 and MLH1
Protocol: O[…] radiosensitive and O[…] radioresistant oesophageal adenocarcinoma cells were used to test the effects of the above compounds on the gene expression of DNA repair proteins. Cells were maintained in RPMI media supplemented with 10% foetal calf serum, penicillin (100 U/ml) and streptomycin (100 μg/ml). Cells were seeded in 6 well plates and left to incubate for 24 hours. Cells were treated 10 μM of the above compounds or fresh media as a control. After 24 hours of treatment, RNA and cDNA was isolated and qPCR performed using primer probes to the following primer probes to RAD51L3, MMS19, SMUG1, PARP1 and MLH1. O[…] radiosensitive and O[…] radioresistant oesophageal adenocarcinoma cells were used to test the effects of compounds 11B HCl, 11B_CC11_HCl and 11B_Z_HCL on the gene expression of DNA repair proteins. Cells were maintained in RPMI media supplemented with 10% foetal calf serum, penicillin (100 U/ml) and streptomycin (100 μg/ml). Cells were seeded in 6 well plates and left to incubate for 24 hours. Cells were treated 10 μM of the above compounds or fresh media as a control. After 24 hours of treatment, RNA and cDNA was isolated and qPCR performed using primer probes to the following primer probes to RAD51L3, MMS19, SMUG1, PARP1 and MLH1.

[4] = test system: OE33R radio-resistant oesophageal adenocarcinoma cells; experiment: Quantification of oxidative phosphorylation (OCR, Seahorse), OE33R; type: cell-based, human; settings: 10 μM, 24 hours
Protocol: as §1
as §2, with “Rates of oxidative phosphorylation were then normalised to cell number.” left out

[5] = test system: zebrafish intersegmental vessels; experiment: Quantification of intersegmental vessel number in zebrafish; type: in vivo; settings: for inhibition of developmental angiogenesis of intersegmental vessels (number of intersegmental vessels): 10 μM, from 6 hpf; for dose-dependent inhibition of development of intersegmental vessels: decreasing doses 10, 7.5, 5 and/or 1 μM, HCl salt
Summary of the method: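 Zebrafish larvae were dechorionated by hand, euthanised, and fixed overnight at 4° C. in 4% PFA before being analysed. Following PBS washes, they were placed on depression slides and examined by epi-fluorescence on an Olympus SZX16 fluorescent microscope. Intersegmental vessels were counted, and the mean count was plotted for each drug.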

| Compound | extracellular acidification rate (ECAR), a measure of glycolysis [1] | oxygen consumption rate (OCR), a measure of oxidative phosphorylation [2] | expression of DNA repair genes [3] | oxygen consumption rate (OCR), a measure of oxidative phosphorylation [4] | inhibition of developmental angiogenesis of intersegmental vessels (number of intersegmental vessels) [5] | dose-dependent inhibition of development of intersegmental vessels [5] | dose-dependent inhibition of development of intersegmental vessels ([5]; listed as 11B-CC11 HCl) | oxygen consumption rate (OCR), a measure of oxidative phosphorylation ([2]; HCl salt) | oxygen consumption rate (OCR), a measure of oxidative phosphorylation ([4]; HCl salt) |
| --- | --- | --- | --- | --- | --- | --- | --- | --- | --- |
| Oc1ccccc1/C=C/c1ccc2ccccc2n1 [11B HCl] | significantly reduce | significantly reduce | Reduction | significantly reduce | – | – | – | – | – |
| C/C(=C\c1ccccc1O)c1ccc2ccccc2n1.Cl [Compound 11B_CC11_HCl, (E)-2-(2-Quinolin-2-yl-propenyl)-phenol HCl salt] | – | significantly reduce | Reduction | significantly reduce | inhibit developmental angiogenesis of zebrafish intersegmental vessels in a statistically significant manner | inhibit developmental angiogenesis of zebrafish intersegmental vessels in a dose-dependent statistically significant manner | dose-dependent effect | – | – |
| Cl.Oc1ccccc1/C=C\c1ccc2ccccc2n1 [Compound 11B_Z_HCl, (Z)-2-(2-(Quinolin-2-yl)vinyl) phenol HCl salt] | No changes | – | Reduction | – | inhibit developmental angiogenesis of zebrafish intersegmental vessels in a statistically significant manner | – | – | Significantly Reduces | Significantly Reduces |
